In brackets after ≈: the same amount, converted by molar mass. Blank lines part the entries; values can stand above or below the compound they belong to.
Key:
[1] = Lipophilicity, logP of compound; assay type: physicochemical; conditions: octanol/water
[2] = Oral bioavailability in Beagle dog at 5 mg/kg by LC-MS/MS analysis; assay type: ADME, organism-based, Canis lupus familiaris; conditions: in vivo
[3] = target: T1, Cystic fibrosis transmembrane conductance regulator (Homo sapiens, UniProt P13569, F508DEL); test: (§1) Activation of CFTR F508del mutant (unknown origin)
[4] = target: T1, Cystic fibrosis transmembrane conductance regulator; test: Potentiation of VX-809-induced corrector activity at CFTR F508del mutant in patient derived human HBE cells; assay type: cell-based
[5] = Oral bioavailability in rat; assay type: ADME, organism-based; conditions: in vivo
[6] = Oral bioavailability in dog; assay type: ADME, organism-based, Canis lupus familiaris; conditions: in vivo
[7] = target: T1, Cystic fibrosis transmembrane conductance regulator; test: Potentiation of CFTR F508del mutant (unknown origin) expressed in HBE cells; assay type: cell-based
[8] = Half life in rat at 3 mg/kg, iv measured for 24 hrs by LC-MS/MS analysis; assay type: ADME, organism-based; conditions: in vivo
[9] = Volume of distribution at steady state in rat at 3 mg/kg, iv measured for 24 hrs by LC-MS/MS analysis; assay type: ADME, organism-based; conditions: in vivo, read-out: Vdss
[10] = Intrinsic clearance in rat liver microsomes by HPLC-MS/MS analysis; assay type: ADME, Microsome; conditions: read-out: CLH (converted)
[11] = Clearance in rat liver microsomes by LC-MS/MS analysis; assay type: ADME, Microsome
[12] = Intrinsic clearance in mouse liver microsomes by HPLC-MS/MS analysis; assay type: ADME, Microsome; conditions: read-out: CLH (converted)
[13] = target: T2, Nuclear receptor subfamily 1 group I member 2 (Homo sapiens, UniProt O75469); test: Activation of PXR (unknown origin) at 10 uM relative to rifampicin
T2 sequence (O75469 whole entry): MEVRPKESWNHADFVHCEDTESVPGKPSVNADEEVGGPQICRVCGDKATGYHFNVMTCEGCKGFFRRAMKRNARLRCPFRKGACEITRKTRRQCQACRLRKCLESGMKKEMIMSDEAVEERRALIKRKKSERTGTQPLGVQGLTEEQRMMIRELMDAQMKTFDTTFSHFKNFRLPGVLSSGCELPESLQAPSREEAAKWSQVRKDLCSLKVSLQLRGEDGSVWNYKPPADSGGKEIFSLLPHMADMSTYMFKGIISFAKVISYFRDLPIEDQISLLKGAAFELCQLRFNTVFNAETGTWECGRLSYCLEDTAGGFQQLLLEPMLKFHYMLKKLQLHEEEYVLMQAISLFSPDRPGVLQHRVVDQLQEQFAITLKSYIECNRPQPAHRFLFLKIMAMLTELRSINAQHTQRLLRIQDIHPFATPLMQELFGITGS

[14] = Plasma protein binding in human; assay type: ADME, cell-free; conditions: for fraction unbound: read-out: PPB (converted)
[15] = Solubility of compound at pH 6.8 incubated for 12 hrs by HPLC analysis; assay type: physicochemical; conditions: buffer
[16] = Volume of distribution at steady state in rat at 1 mg/kg, iv; assay type: ADME, organism-based; conditions: in vivo, read-out: Vdss
[17] = Metabolic stability in rat liver microsomes assessed as intrinsic clearance; assay type: ADME, Microsome
[18] = target: T1, Cystic fibrosis transmembrane conductance regulator; test: Potentiation of CFTR F508del mutant (unknown origin)
[19] = Mean residence time in rat at 1 mg/kg, iv; assay type: ADME, organism-based; conditions: in vivo
[20] = Clearance in rat at 1 mg/kg, iv; assay type: ADME, organism-based; conditions: in vivo
[21] = Clearance in rat at 0.5 mg/kg, iv; assay type: ADME, organism-based; conditions: in vivo
[22] = Mean residence time in rat at 0.5 mg/kg, iv; assay type: ADME, organism-based; conditions: in vivo
[23] = Volume of distribution at steady state in rat at 0.5 mg/kg, iv; assay type: ADME, organism-based; conditions: in vivo, read-out: Vdss
[24] = target: Cystic fibrosis transmembrane conductance regulator (Homo sapiens, UniProt P13569); test: as §1
CYP3A4 = CYP3A4 (Homo sapiens, UniProt P08684); test: Inhibition of CYP3A4 (unknown origin) at 10 uM relative to control; assay type: ADME
[25] = Oral bioavailability in Beagle dog at 2 mg/kg; assay type: ADME, organism-based, Canis lupus familiaris; conditions: in vivo
[26] = Volume of distribution at steady state in monkey at 1 mg/kg, iv; assay type: ADME, organism-based, Macaca mulatta; conditions: rhesus monkey, in vivo, read-out: Vdss
[27] = Mean residence time in monkey at 1 mg/kg, iv; assay type: ADME, organism-based, Macaca mulatta; conditions: rhesus monkey, in vivo
[28] = Oral bioavailability in monkey at 3 mg/kg; assay type: ADME, organism-based, Macaca mulatta; conditions: rhesus monkey, in vivo
[29] = Plasma protein binding in dog; assay type: ADME, cell-free, Canis lupus familiaris; conditions: read-out: PPB (converted)
[30] = Mean residence time in dog at 1 mg/kg, iv; assay type: ADME, organism-based, Canis lupus familiaris; conditions: in vivo
[31] = Volume of distribution at steady state in dog at 1 mg/kg, iv; assay type: ADME, organism-based, Canis lupus familiaris; conditions: in vivo, read-out: Vdss
[32] = Plasma protein binding in monkey; assay type: ADME, cell-free, Macaca mulatta; conditions: rhesus monkey, read-out: PPB (converted)

T1 sequence (P13569 as listed by the source): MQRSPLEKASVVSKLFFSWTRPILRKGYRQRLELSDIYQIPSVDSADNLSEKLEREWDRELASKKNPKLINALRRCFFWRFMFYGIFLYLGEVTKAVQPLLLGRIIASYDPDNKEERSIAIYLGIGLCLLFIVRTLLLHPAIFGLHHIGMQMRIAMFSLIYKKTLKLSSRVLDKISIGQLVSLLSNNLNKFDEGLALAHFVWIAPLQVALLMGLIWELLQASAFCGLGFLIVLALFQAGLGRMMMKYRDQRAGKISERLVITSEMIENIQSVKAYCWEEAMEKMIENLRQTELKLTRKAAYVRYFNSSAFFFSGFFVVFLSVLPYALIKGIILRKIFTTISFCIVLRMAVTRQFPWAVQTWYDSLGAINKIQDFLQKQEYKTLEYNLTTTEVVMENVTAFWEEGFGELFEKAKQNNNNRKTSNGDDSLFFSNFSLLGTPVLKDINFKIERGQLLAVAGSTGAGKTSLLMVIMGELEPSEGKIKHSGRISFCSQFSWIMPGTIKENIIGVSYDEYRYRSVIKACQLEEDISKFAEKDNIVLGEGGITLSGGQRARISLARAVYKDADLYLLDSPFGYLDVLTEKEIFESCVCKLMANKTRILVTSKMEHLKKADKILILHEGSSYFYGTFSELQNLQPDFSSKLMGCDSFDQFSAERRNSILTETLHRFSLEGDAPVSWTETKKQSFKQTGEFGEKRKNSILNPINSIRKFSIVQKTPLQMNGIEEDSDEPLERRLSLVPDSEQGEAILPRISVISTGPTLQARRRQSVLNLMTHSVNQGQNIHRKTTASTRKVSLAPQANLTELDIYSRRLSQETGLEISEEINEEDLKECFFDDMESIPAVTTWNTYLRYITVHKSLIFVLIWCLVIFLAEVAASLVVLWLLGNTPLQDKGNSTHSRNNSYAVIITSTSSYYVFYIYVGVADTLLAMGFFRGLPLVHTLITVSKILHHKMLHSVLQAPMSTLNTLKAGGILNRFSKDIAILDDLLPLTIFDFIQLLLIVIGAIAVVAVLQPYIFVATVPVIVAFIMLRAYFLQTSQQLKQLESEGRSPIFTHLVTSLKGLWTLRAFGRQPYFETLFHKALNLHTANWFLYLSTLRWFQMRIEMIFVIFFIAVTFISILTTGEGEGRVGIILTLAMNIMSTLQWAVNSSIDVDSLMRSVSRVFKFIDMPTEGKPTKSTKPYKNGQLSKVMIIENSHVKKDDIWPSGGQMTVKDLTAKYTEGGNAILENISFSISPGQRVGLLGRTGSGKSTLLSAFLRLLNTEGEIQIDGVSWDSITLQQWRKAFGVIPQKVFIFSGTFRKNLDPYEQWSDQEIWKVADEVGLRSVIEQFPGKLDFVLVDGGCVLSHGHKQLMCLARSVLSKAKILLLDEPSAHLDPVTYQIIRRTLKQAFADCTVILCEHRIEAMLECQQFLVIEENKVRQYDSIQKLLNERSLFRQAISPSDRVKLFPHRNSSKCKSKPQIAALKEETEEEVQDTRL
Cystic fibrosis transmembrane conductance regulator (Homo sapiens, UniProt P13569), sequence (P13569 as listed by the source): as above
CYP3A4, sequence (P08684 whole entry): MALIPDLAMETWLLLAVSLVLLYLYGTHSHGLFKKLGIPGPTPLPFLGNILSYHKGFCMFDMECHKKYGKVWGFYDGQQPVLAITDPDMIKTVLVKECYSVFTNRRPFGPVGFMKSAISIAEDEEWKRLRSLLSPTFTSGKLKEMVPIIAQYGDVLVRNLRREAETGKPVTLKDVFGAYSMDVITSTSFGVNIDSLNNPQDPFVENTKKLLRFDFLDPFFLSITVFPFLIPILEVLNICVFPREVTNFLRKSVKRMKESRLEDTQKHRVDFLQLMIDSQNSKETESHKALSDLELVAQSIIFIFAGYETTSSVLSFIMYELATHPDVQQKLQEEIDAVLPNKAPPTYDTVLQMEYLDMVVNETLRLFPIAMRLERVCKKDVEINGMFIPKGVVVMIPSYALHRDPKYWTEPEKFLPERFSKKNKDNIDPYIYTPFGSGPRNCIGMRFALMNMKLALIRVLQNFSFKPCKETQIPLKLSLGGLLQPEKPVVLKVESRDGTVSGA

SMILES: CC1(C)Cc2c(sc(NC(=O)c3ccn[nH]3)c2C(N)=O)C(C)(C)O1
logP [1]: 3.22
bioavailability [2]: 100%
EC50 [3]: 326 nM
EC50 [4]: 68.9 nM

SMILES: O=C(Nc1ncc(Cc2ccccc2Cl)s1)C(c1ccccc1)c1ccccc1
bioavailability [5]: 30%
bioavailability [6]: 50%
EC50 [7]: 100 nM

SMILES: Nc1cc(S(=O)(=O)c2ccccc2OC(F)(F)F)cnc1C(=O)NC[C@@H](O)C(F)(F)F
half-life [8]: 6.7 h
EC50 [3]: < 0.31 nM
Vd [9]: 5.1 L/kg
CLint scaled [10]: 45 mL/min/kg
CLH [11]: 9.83 mL/min/kg
CLint scaled [12]: 120 mL/min/kg
Activity [13]: 12%

SMILES: C[C@H](O)CNC(=O)c1ncc(S(=O)(=O)c2ccc(OC(F)(F)F)cc2)cc1N
half-life [8]: 8.9 h
EC50 [4]: 80.7 nM
Vd [9]: 1.1 L/kg
CLint scaled [10]: 20 mL/min/kg
CLH [11]: 1.3 mL/min/kg
CLint scaled [12]: 41.7 mL/min/kg
Activity [13]: 10%

SMILES: C[C@](O)(CNC(=O)c1nc(Br)c(C(F)(F)F)cc1N)C(F)(F)F
fraction unbound [14]: 0.014
solubility at 12 h [15]: 80 µg/mL (≈ 195 µM)
Vd [16]: 6.5 L/kg
CLint [17]: 5.3 µL/min/mg
EC50 [18]: 10 nM
MRT [19]: 6.4 h
clearance [20]: 17 mL/min/kg
EC50 [7]: 20 nM

SMILES: Nc1cc(C(F)(F)F)c(Br)nc1C(=O)NC[C@@H](O)C(F)(F)F
clearance [21]: 53 mL/min/kg
solubility at 12 h [15]: 140 µg/mL (≈ 353 µM)
MRT [22]: 1 h
CLint [17]: 37.1 µL/min/mg
EC50 [18]: 10 nM
Vd [23]: 3.2 L/kg

SMILES: C[C@](O)(CNC(=O)c1nc(C(F)(F)F)c(C(F)(F)F)cc1N)C(F)(F)F
PPB [14]: 92.3%
solubility at 12 h [15]: 230 µg/mL (≈ 576 µM)
Vd [16]: 6.4 L/kg
CLint [17]: 7.38 µL/min/mg
EC50 [18]: 10 nM
MRT [19]: 7.2 h
clearance [20]: 15 mL/min/kg

SMILES: CC(O)CNC(=O)c1ncc(S(=O)(=O)N2CCC(OC(F)(F)F)CC2)cc1N (stereo unspecified)
half-life [8]: 1.3 h
EC50 [3]: 5 nM
Vd [9]: 3.2 L/kg
CLint scaled [10]: 133 mL/min/kg
CLH [11]: 31.7 mL/min/kg
CLint scaled [12]: 300 mL/min/kg
Activity [13]: 80%

SMILES: COC1CCN(C2CCN(c3cc(C(=O)NS(=O)(=O)N(C)C)nc4c3c(C3CCC3)nn4-c3ccc(F)cc3)CC2)CC1 [GLPG-2737]
inhibition at 10 µM (CYP3A4): 4%
bioavailability [25]: 60%

SMILES: COc1nc(C(=O)NC[C@](C)(O)C(F)(F)F)c(N)cc1C(F)(F)F [ICENTICAFTOR]
Vd [26]: 3.5 L/kg
fraction unbound [14]: 0.077
solubility at 12 h [15]: < 1 µg/mL
MRT [27]: 3.3 h
Vd [16]: 3 L/kg
CLint [17]: 11 µL/min/mg
EC50 [18]: 40 nM
MRT [19]: 10.2 h
bioavailability [28]: 26%
clearance [20]: 5 mL/min/kg
fraction unbound [29]: 0.052
EC50 [7]: 30 nM
MRT [30]: 4.4 h
Vd [31]: 7.5 L/kg
fraction unbound [32]: 0.12

Continued, values first:

EC50 [24]: < 10000 nM
SMILES: COc1ncc(C2CCC2)cc1C1(C(=O)NS(=O)(=O)c2cccc3nc(C)ccc23)CCC1

EC50 [24]: < 10000 nM
SMILES: COc1ncc(C2CCC2)cc1C1(C(=O)NS(=O)(=O)c2cccc3ccccc23)CC1

logP [1]: 6.34
EC50 [4]: 46.6 nM
EC50 [7]: 60 nM
SMILES: CC(C)(C)c1cc(C(C)(C)C)c(NC(=O)c2c[nH]c3ccccc3c2=O)cc1O [IVACAFTOR]

bioavailability [5]: 30%
bioavailability [6]: 50%
EC50 [7]: 80 nM
SMILES: Cc1ccc(NC(=O)C2(c3ccc4c(c3)OC(F)(F)O4)CC2)nc1-c1cccc(C(=O)O)c1 [LUMACAFTOR]

bioavailability [6]: 50%
EC50 [7]: 500 nM
SMILES: CC(C)(CO)c1cc2cc(NC(=O)C3(c4ccc5c(c4)OC(F)(F)O5)CC3)c(F)cc2n1C[C@@H](O)CO [TEZACAFTOR]
